According to patent US12377086B2, “Therapeutic methods, combinations and kits” (priority 2021, dated 2025):
Read-outs that look alike come from different tables or passages of the source.

Legend:
VIM-2 [1] = molecular target: T1, VIM-2 (Pseudomonas aeruginosa, UniProt Q5U7L7); experiment: biochemical; conditions: for VIM-2 percentage inhibition: 50 μM compound, 5 nM MBL, 10 μM nitrocefin, 30 mins; for inhibition at 50 µM: read-out: VIM-2 percentage inhibition, 50 μM compound, 5 nM MBL, 10 μM nitrocefin, 30 mins
Description: (§1) The pET24a-VIM-2 plasmid was transformed into competent BL21 (DE3) E. coli cells. The cells were plated onto an LB-agar plate with kanamycin (25 μg/mL) and incubated overnight at 37° C. A single colony was used to inoculate 50 mL of LB, containing 25 μg/mL kanamycin, and the culture was shaken overnight at 37° C. From the overnight culture, 10 mL were transferred to 4×IL LB medium containing 25 μg/mL kanamycin. The cultures were grown at 37° C. until an optical density (OD600 nm) of 0.6-0.8 was reached, at which point protein production was induced with IPTG (0.5 mM) and ZnCl2 (100 μM). The temperature was reduced to 20° C., and the cells were shaken for an additional 18 h. The cultures were harvested by centrifugation (8 Kxg) for 10 min at 4° C. The resulting pellets were re-suspended in 25 mL of 50 mM HEPES, pH 7.5, containing 500 mM NaCl (buffer B). The cells were lysed with three passes through a French Press. The lysate was centrifuged (15 Kxg) for 30 min at 4° C. The supernatant was dialyzed against 2 L of 50 mM HEPES, pH 7.5 (buffer A), for 4 h. Buffer A was used to equilibrate a 25 mL Q-Sepharose column using an FPLC. The sample was loaded onto the column, and proteins were eluted with a linear gradient 0-500 mM NaCl with buffer B. Fractions containing VIM-2, determined by SDS-PAGE, were pooled and concentrated to 2-3 mL in an Amicon ultraconcentrator equipped YM-10 membrane. Further purification was conducted with a Sephacryl S-200 gel filtration column using 50 mM HEPES, pH 7.5, containing 150 mM NaCl. Fractions containing pure VIM-2 were pooled, and metal analysis was performed.
(§2) To identify potential MBL inhibitors, the relative change in the formation of hydrolyzed nitrocefin between treated and untreated MBL was determined as percentage inhibition. 5 nM of each BML was pre-incubated for 10 mins with 50 μM of each compound, followed by the addition of 10 μM nitrocefin.
(§3) Each MBL was incubated with 50 μM of each compound, followed by the addition of nitrocefin. The relative change in absorbance is reported as percentage inhibition.

VIM-2 [2] = molecular target: T1, VIM-2; experiment: biochemical
Description: as §1, with “Further purification was conducted with a Sephacryl S-200 gel filtration column using 50 mM HEPES, pH 7.5, containing 150 mM NaCl.” left out
The enzyme inhibition constant (Ki) was derived from initial-velocity measurements by nonlinear regression using competitive-inhibition enzyme kinetics using Graphpad Prism 6.

VIM-2 expressing E. coli [3] = type: cell-based, Escherichia coli
Description: (§4) The optical density of the cell cultured was monitored at 600 nm (OD600 nm). The cells were cultured on 0.8 g/100 ml nutrient agar plate at pH 7.0 and 37° C. […] An overnight culture of the bacterial strain was sub-cultured to 0.06 OD600 nm into the NB medium and was then seeded at max 200 μl into the wells of a 96 well microtiter plate. Samples were then incubated at 37° C. and shaken at 200 rpm for 18 h. The absorbance was measured on an ELIZA plate reader and analyzed with the Gen5™ software suite (version 1.08).
The bacterial culture was prepared as described above. The diluted subculture bacteria in NB medium were set up to a final volume of 200 μl in clear flat-bottom 96-well plates containing ten different concentrations of each tested compound ranging from 0.001 μM to 50 μM. The mixing of the bacterial culture plate were then incubated in a 37° C. […] shaken incubator at 200 rpm for 18 h before measuring their optical density at 600 nm.

HEK293 cells = experiment: Human cell cytotoxicity assay (MTT); conditions: 72 h
Description: (§5) Human embryonic kidney cell line (HEK293) were grown in 100 mm cell culture petri dishes at 37° C. with 5% CO2 in Dulbecco's Modified Eagle's Medium high glucose medium containing 1% penicillin/streptomycin (Sigma-Aldrich, St. Louis, MO) and supplemented with 5% of fetal bovine serum (Thermo Fisher Scientific Gibco®). Cells under 10 passages and the 80% of monitored cell petri dish were used for experiment.
(§6) Cytotoxicity of tested compounds were estimated using the MTT method. Cell viability were measured by counting viable cells by using the 3 (4,5dimethylthiazol-2-yl)-2,5-diphenyltetrazolium bromide (MTT) (Sigma-Aldrich, St. Louis, MO) colorimetric dye-reduction assay. […] Following 24 h incubation and attachment, the cells were incubated for 72 h with different concentrations of inhibitors (0.01˜100 μM) in culture media without FBS. The Control cells were supplemented only with a medium without containing FBS. All samples in 96 well plate were incubated at 37° C. at an atmosphere of 5% CO2. […] The absorbance was measured using a micro-plate reader at wavelength 590 nm. The CC50 were obtained based on a comparison with untreated cells by fitting the data to a sigmoidal dose-response equation using Graphpad Prism 6.

VIM-2 expressing E. coli [4] = type: cell-based, Escherichia coli; conditions: VIM-2 expressing E. coli, compound with amoxicillin
Description: as §4
• The data are reported as relative percentage growth compared to untreated cells.

VIM-2 [5] = molecular target: T1, VIM-2; conditions: after incubation with inhibitor and dialysis
Description: VIM-2 was diluted to 6 μM with 50 mM HEPES, pH 7.5, containing 150 mM NaCl. The diluted protein solution was used to make several 5 mL aliquots. […] One aliquot contained one molar equivalent of inhibitor (6 μM), with respect to enzyme concentration, and the second aliquot contained two molar equivalents (12 μM). One aliquot contained no inhibitor. Each aliquot was then incubated for 4 h at 4° C. Following incubation, each aliquot was dialyzed versus 500 mL of 50 mM HEPES, pH 7.5, for 4 h at 4° C. The aliquots were analyzed using ICP-AES, as previously described REF. The emission wavelengths used were 213.856, 238.892, 259.940, 231.604, and 324.754 nm for Zn, Co, Fe, Ni, and Cu, respectively.
To further address the mode of action of 8-hydroxyquinolines, equilibrium dialysis experiments were conducted. […] EDTA, a well-known metal scavenger, inhibits all MBLs through a chelation mechanism (Bush, K.; Jacoby, G. A. Updated Functional Classification of beta-Lactamases. Antimicrobial Agents and Chemotherapy 2010, 54, 969-976).

NDM-1 = NDM-1 (Klebsiella pneumoniae, UniProt C7C422); experiment: biochemical; conditions: read-out: NDM-1 percentage inhibition, 50 μM compound, 5 nM MBL, 10 μM nitrocefin, 30 mins
Description: BL21 (DE3) E. coli cells containing the pET26b-ndm-1 plasmid were used to inoculate a 50 mL LB starter culture containing kanamycin (25 μg/mL). The culture was grown overnight at 37° C. The starter culture was then used to inoculate 4×1 L LB containing kanamycin (25 μg/mL). These flasks were incubated at 37° C. until culture reached an optical density of (OD600) of 0.6 to 0.8. The incubator was then set to 22° C. and the cultures were shaken for 30 min to allow them to cool. ZnCl2 ([…]) and IPTG (0.5 mM) were then added to the cultures and they were grown for 18 h at 22° C. The cells were then harvested using centrifugation (8000×g) for 10 min. The pellet was resuspended with 25 mL 50 mM HEPES, pH 7.5 containing 500 mM NaCl (Buffer B). Lysis was performed with three passes through a French Press. The lysate was centrifuged for 30 min (15,000×g) at 4° C. The supernatant was then dialyzed versus 2 L 50 mM HEPES, pH 7.5 (Buffer C) for 4 h. An FPLC was used to equilibrate a Q-Sepharose column using buffer C using a flowrate of 2.0 mL/min for 1.5 h. The lysate was then loaded onto the column and eluted with a linear NaCl gradient from 0-500 mM. Fractions containing NDM-1 were identified with SDS-PAGE. These fractions were pooled and concentrated to 2-3 mL in an Amicon ultracentrifugation concentrating unit with a YM-10 membrane. The resulting protein mixture was then loaded onto a Sephacryl S-200 gel filtration column run with 50 mM HEPES, pH 7.5 containing 150 mM NaCl (Buffer A). SDS-PAGE was used to identify fractions containing pure protein.
as §2, §3

in vitro [6] = conditions: human, plasma
Description: The plasma stability assay was performed in triplicate by incubating the test compound in normal human plasma at 37° C. At 0, 1, 3, 6, and 24 h, aliquots of the plasma mixture were taken and quenched with 3 volumes of acetonitrile. The samples were then vortexed and centrifuged at 14,000 rpm for 3 min at 4° C. The supernatants were collected and analyzed by LC-MS/MS to determine the remaining percentage at various time points and to calculate plasma half-life (t1/2).

in vitro [7] = conditions: human, microsomes, pH 7.4
Description: The in vitro microsomal stability assay was conducted in triplicate in human liver microsomal systems. In a typical incubation, the test compound was spiked into the reaction mixture containing 0.5 mg/mL of liver microsomal protein and 1 mM of NADPH in 0.1 M potassium phosphate buffer (pH 7.4) at 37° C. At various time points, 1 volume of reaction aliquot was taken and quenched with 3 volumes of acetonitrile. The samples were then vortexed and centrifuged at 14,000 rpm for 3 min at 4° C. The supernatants were collected and analyzed by LC-MS/MS to determine the in vitro metabolic half-life (t1/2) and intrinsic clearance (CLint).

in vitro [8] = conditions: human
Description: as §5, §6

[9] = cited from earlier work
[10] = 5 nM MBL, 10 μM nitrocefin, read-out: VIM-2 IC50
[11] = nitrocefin substrate, competitive-inhibition fit, read-out: VIM-2 Ki
[12] = in the presence of 50 μM amoxicillin

Sequence of NDM-1 (C7C422 whole entry, looked up, species assumed): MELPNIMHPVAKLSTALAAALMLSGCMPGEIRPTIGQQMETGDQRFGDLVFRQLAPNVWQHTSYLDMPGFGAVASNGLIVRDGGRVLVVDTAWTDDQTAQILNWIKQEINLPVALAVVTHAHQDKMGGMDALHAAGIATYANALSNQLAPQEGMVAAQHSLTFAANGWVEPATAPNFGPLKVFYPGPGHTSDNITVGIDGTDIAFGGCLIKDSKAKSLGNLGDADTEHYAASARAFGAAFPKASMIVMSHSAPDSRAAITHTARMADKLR

Compound	VIM-2 percentage inhibition (VIM-2 [1]) [%]	IC50 (VIM-2 [2]; [10]) [nM]	Ki (VIM-2 [2]; [11]) [nM]	EC50 (VIM-2 expressing E. coli [3]; [12]) [nM]	CC50 (HEK293 cells) [nM]	synergistic growth inhibition (VIM-2 expressing E. coli [4])	metal content of VIM-2 / removal of Zn(II) from the active site (VIM-2 [5])	inhibition at 50 µM (VIM-2 [1]) [%]	IC50 (VIM-2 [2]) [nM]	Ki (VIM-2 [2]) [nM]	also measured
O=[N+]([O-])c1ccc(O)c2ncccc12 [Compound 41]	86	670	250	70	7800						EC50 (VIM-2 expressing E. coli [3]; 50 uM amoxicillin): 70 nM
Oc1c(I)cc(Cl)c2cccnc12 [Compound 48, Clioquinol, reference compound]	93	5100	1100	940	18300	over 96%	do not inhibit VIM-2 by removal of Zn(II)				
O=C(O)c1ccc2cccnc2c1O [Compound 45, 8-hydroxyquinoline-7-carboxylic acid]						over 96%	do not inhibit VIM-2 by removal of Zn(II)	94			inhibition at 50 µM (NDM-1): 99%; half-life (in vitro [6]): > 24 h; half-life (in vitro [7]): > 1 h; CC50 at 72 h (in vitro [8]; HEK293 cells): > 100000 nM
Oc1cccc2cccnc12 [Compound 31, 8-Hydroxyquinoline]	98						do not inhibit VIM-2 by removal of Zn(II)	> 96	3600	670	pKa, hydroxyl group ([9]; hydroxyl group): 9.89; pKa, nitrogen atom ([9]; nitrogen atom): 5.13
O=C(O)c1cccc(=S)n1O [Compound 51, 1-hydroxypyridine-2 (1H)-thione-6-carboxylic acid, reference compound]									310	20	CC50 at 72 h (in vitro [8]): 92000 nM
